The source of these data is patent US20210309685A1, “AMINO ACID SALTS OF NICOTINIC ACID MONONUCLEOTIDE AND NICOTINAMIDE MONONUCLOETIDE AS ANTI-AGEING AGENTS” (Life Biosciences, Inc., priority 2018, published 2021).

This assay has as its system COV434 cells. The experiment in a line: NAD cell assay (NAD cycling method) in COV434 cells. The format is cell-based. The note with it: cellular NAD level, 200 uM, 4 hr, mole per mole versus parent NMN (NMN salts) or NaMN (NaMN salts), normalised to protein. The protocol:
NAD levels were assayed based on the NAD cycling method of Zhu and Rand, PLoS One (2012), herein incorporated by reference. COV434 cells were maintained in 6 well plates and treated with the indicated compounds at a concentration of 200 uM for 4 hr. Media was removed, plates were washed in cold PBS and cells were scraped down in NAD extraction buffer containing 10 mM nicotinamide, 50 mM Tris HCl, 0.1% Triton X-100. Cells were homogenised by sonication for 5 seconds, and samples were centrifuged at 7,000 g for 5 min at 4 degrees. Aliquots were taken for later protein assay, and samples were then passed through 10 kDa amicon filters at 14,000 g, 30 min at 4 degrees to remove proteins from the sample. Each sample was measured in technical triplicate, with 25 μL sample added to 100 μL ADH cycling mix (0.2 mg/ml alcohol dehydrogenase enzyme, 2% ethanol, 100 mM Tris pH 8.5). Samples were allowed to cycle for 10 min at room temperature, followed by 50 μL addition of an MTT/PMS solution (0.1 mM phenazine methosulfate, 0.8 mM 3-(4,5-Dimethylthiazol-2-yl)-2,5-diphenyltetrazolium bromide), 100 mM Tris-HCl pH 8.5). Plates were then incubated for 15 min and absorbance was measured at 570 nm. NAD concentrations were extrapolated from a standard curve, and normalised to protein concentrations determined by BCA protein assay.
The adjusted fold increase is obtained through a direct comparison on a mole per mole basis between the compared salt and its parent counterpart. In other words, the instant salts derived from NMN parent molecule will only have their NAD activity level measured against NMN based on the same amount (mole) of salt tested in the cell. Likewise those salts derived from NaMN will have their NAD cell activity measured against NaMN. For example, the fold increase of compound I-002 is based on the NAD activity observed in a direct comparison for the same amount of mole of I-002 tested in the cell and that of the NMN parent. Similarly, the fold increase of I-003 is based on the direct comparison with NaMN.
Turning to `O=C([O-])c1ccc[n+]([C@@H]2O[C@H](COP(=O)(O)O)[C@@H](O)[C@H]2O)c1` [Compound I-009, (S)-1-Carboxy-4-guanidinobutan-1-aminium 1-((2R,3R,4S,5R)-5-(((hydrogenphosphonato)oxy)methyl)-3,4-dihydroxytetrahydrofuran-2-yl)pyridin-1-ium-3-carboxylate], the “FOLD increase adjusted for MW (compared to parent molecule)” value (from here on “FOLD increase adjusted for MW”) is given as 2.03 fold.
As for `O=C([O-])c1ccc[n+]([C@@H]2O[C@H](COP(=O)(O)O)[C@@H](O)[C@H]2O)c1` [Compound I-005, Bis((S)-4-Amino-1-carboxy-4-oxobutan-1-aminium)-1-((2R,3R,4S,5R)-3,4-dihydroxy-5-((phosphonatooxy)methyl)tetrahydrofuran-2-yl)pyridin-1-ium-3-carboxylate], the “FOLD increase adjusted for MW” value was 3.05 fold.
Take `O=C([O-])c1ccc[n+]([C@@H]2O[C@H](COP(=O)(O)O)[C@@H](O)[C@H]2O)c1` [Compound I-017, Bis((S)-1-Carboxy-2-(1H-indol-3-yl)ethanaminium)-1-((2R,3R,4S,5R)-3,4-dihydroxy-5-((phosphonatooxy)methyl)tetrahydrofuran-2-yl)pyridin-1-ium-3-carboxylate]: the “FOLD increase adjusted for MW” value came out at 2.40 fold.
With `O=C(O)c1ccc[n+]([C@@H]2O[C@H](COP(=O)([O-])O)[C@@H](O)[C@H]2O)c1` [Compound I-027, (S)-1-carboxy-3-(methylthio)propan-1-aminium 1-((2R,3R,4S,5R)-5-(((hydrogenphosphonato)oxy)methyl)-3,4-dihydroxytetrahydrofuran-2-yl)pyridin-1-ium-3-carboxylate] the figure was 1.49 fold.
Regarding `O=C([O-])c1ccc[n+]([C@@H]2O[C@H](COP(=O)(O)O)[C@@H](O)[C@H]2O)c1` [Compound I-001, (S)-1-Carboxy-2-methylpropan-1-aminium 1-((2R,3R,4S,5R)-5-(((hydrogenphosphonato)oxy)methyl)-3,4-dihydroxytetrahydrofuran-2-yl)pyridin-1-ium-3-carboxylate], the “FOLD increase adjusted for MW” value is 1.61 fold.
With `NC(=O)c1ccc[n+]([C@@H]2O[C@H](COP(=O)([O-])O)[C@@H](O)[C@H]2O)c1` [Compound I-022, (S)-2-carboxypyrrolidin-1-ium ((2R,3S,4R,5R)-5-(3-carbamoylpyridin-1-ium-1-yl)-3,4-dihydroxytetrahydrofuran-2-yl)methyl phosphate], the “FOLD increase adjusted for MW” value was 1.33 fold.
With `O=C([O-])c1ccc[n+]([C@@H]2O[C@H](COP(=O)(O)O)[C@@H](O)[C@H]2O)c1` [Compound I-011, (S)-1-Carboxy-2-(1H-indol-3-yl)ethanaminium 1-((2R,3R,4S,5R)-5-(((hydrogenphosphonato)oxy)methyl)-3,4-dihydroxytetrahydrofuran-2-yl)pyridin-1-ium-3-carboxylate], the “FOLD increase adjusted for MW” value was found to be 2.35 fold.
“(1S,2S)-1-Carboxy-2-methylbutan-1-aminium ((2R,3S,4R,5R)-5-(3-carbamoylpyridin-1-ium-1-yl)-3,4-dihydroxytetrahydrofuran-2-yl)methyl phosphate [Compound I-062]”: the “FOLD increase adjusted for MW” value was determined as 1.32 fold.
`O=C([O-])c1ccc[n+]([C@@H]2O[C@H](COP(=O)(O)O)[C@@H](O)[C@H]2O)c1` [Compound I-004, Bis((S)-1-Carboxy-2-methylpropan-1-aminium)-1-((2R,3R,4S,5R)-3,4-dihydroxy-5-((phosphonatooxy)methyl)tetrahydrofuran-2-yl)pyridin-1-ium-3-carboxylate]: the “FOLD increase adjusted for MW” value was 1.99 fold.
Turning to `O=C([O-])c1ccc[n+]([C@@H]2O[C@H](COP(=O)(O)O)[C@@H](O)[C@H]2O)c1` [Compound I-008, Bis((S)-1-Carboxy-2-(1H-imidazol-4-yl)ethanaminium)-1-((2R,3R,4S,5R)-3,4-dihydroxy-5-((phosphonatooxy)methyl)tetrahydrofuran-2-yl)pyridin-1-ium-3-carboxylate], the “FOLD increase adjusted for MW” value turned out to be 2.45 fold.
Regarding “(R)-1-Carboxy-2-methylpropan-1-aminium 1-((2R,3R,4S,5R)-3,4-dihydroxy-5-((phosphonatooxy)methyl)tetrahydrofuran-2-yl)pyridin-1-ium-3-carboxylate [Compound I-065]”, the “FOLD increase adjusted for MW” value stood at 1.54 fold.
Take “(S)-1-Carboxy-3-methylbutan-1-aminium ((2R,3S,4R,5R)-5-(3-carbamoylpyridin-1-ium-1-yl)-3,4-dihydroxytetrahydrofuran-2-yl)methyl phosphate [Compound I-059]”: the “FOLD increase adjusted for MW” value is 1.80 fold.
With `O=C([O-])c1ccc[n+]([C@@H]2O[C@H](COP(=O)(O)O)[C@@H](O)[C@H]2O)c1` [Compound I-003, (S)-4-Amino-1-carboxy-4-oxobutan-1-aminium 1-((2R3R,4S,5R)-5-(((hydrogenphosphonato)oxy)methyl)-3,4-dihydroxytetrahydrofuran-2-yl)pyridin-1-ium-3-carboxylate] the figure was 1.89 fold; with `O=C([O-])c1ccc[n+]([C@@H]2O[C@H](COP(=O)(O)O)[C@@H](O)[C@H]2O)c1` [Compound I-015, Bis((S)-1-Carboxy-4-guanidinobutan-1-aminium)-1-((2R,3R,4S,5R)-3,4-dihydroxy-5-((phosphonatooxy)methyl)tetrahydrofuran-2-yl)pyridin-1-ium-3-carboxylate], 2.04 fold.
For the compound `O=C(O)c1ccc[n+]([C@@H]2O[C@H](COP(=O)([O-])O)[C@@H](O)[C@H]2O)c1` [Compound I-020, Bis((1S,2R)-1-carboxy-2-hydroxypropan-1-aminium)-1-((2R,3R,4S,5R)-3,4-dihydroxy-5-((phosphonatooxy)methyl)tetrahydrofuran-2-yl)pyridin-1-ium-3-carboxylate], the “FOLD increase adjusted for MW” value turned out to be 1.52 fold.
Regarding `O=C([O-])c1ccc[n+]([C@@H]2O[C@H](COP(=O)(O)O)[C@@H](O)[C@H]2O)c1` [Compound I-016, Bis((S)-1,3-Dicarboxypropan-1-aminium)-1-((2R,3R,4S,5R)-3,4-dihydroxy-5-((phosphonatooxy)methyl)tetrahydrofuran-2-yl)pyridin-1-ium-3-carboxylate], the “FOLD increase adjusted for MW” value came out at 2.29 fold.
With `NC(=O)c1ccc[n+]([C@@H]2O[C@H](COP(=O)([O-])O)[C@@H](O)[C@H]2O)c1` [Compound I-002, (S)-1-Carboxy-2-methylpropan-1-aminium ((2R, 3S, 4R, 5R)-5-(3-carbamoylpyridin-1-ium-1-yl)-3,4-dihydroxytetrahydrofuran-2-yl)methyl phosphate] the figure was 1.24 fold; with `NC(=O)c1ccc[n+]([C@@H]2O[C@H](COP(=O)([O-])O)[C@@H](O)[C@H]2O)c1` [Compound I-014, (S)-1-Carboxy-2-(1H-indol-3-yl)ethanaminium ((2R,3S,4R,5R)-5-(3-carbamoylpyridin-1-ium-1-yl)-3,4-dihydroxytetrahydrofuran-2-yl)methyl phosphate], 1.51 fold.
For `O=C([O-])c1ccc[n+]([C@@H]2O[C@H](COP(=O)(O)O)[C@@H](O)[C@H]2O)c1` [Compound I-006, (S)-1-Carboxy-2-(1H-imidazol-4-yl)ethanaminium 1-((2R,3R,4S,5R)-5-(((hydrogenphosphonato)oxy)methyl)-3,4-dihydroxytetrahydrofuran-2-yl)pyridin-1-ium-3-carboxylate], the “FOLD increase adjusted for MW” value was determined as 1.64 fold.
Turning to `O=C([O-])c1ccc[n+]([C@@H]2O[C@H](COP(=O)(O)O)[C@@H](O)[C@H]2O)c1` [Compound I-026, Bis((S)-5-amino-5-carboxypentan-1-aminium)-1-((2R,3R,4S,5R)-3,4-dihydroxy-5-((phosphonatooxy)methyl)tetrahydrofuran-2-yl)pyridin-1-ium-3-carboxylate], the “FOLD increase adjusted for MW” value turned out to be 2.47 fold.
As to “(S)-1-Carboxy-3-methylbutan-1-aminium 1-((2R,3R,4S,5R)-3,4-dihydroxy-5-((phosphonatooxy)methyl)tetrahydrofuran-2-yl)pyridin-1-ium-3-carboxylate [Compound I-058]”, the “FOLD increase adjusted for MW” value amounted to 1.81 fold.
